From ChEMBL document CHEMBL1681651, “A broad spectrum anticancer nucleoside with selective toxicity against human colon cells in vitro” (2011)

Tests used:
Format in all cases: functional
HOP-92 [1] = assay: Growth inhibition of human HOP92 cells assessed as cell growth at 100 uM after 48 hrs by SRB assay; settings: HOP-92, 48 h, read-out: Activity
NCI-H460 = assay: Growth inhibition of human NCI-H460 cells assessed as cell growth at 100 uM after 48 hrs by SRB assay; settings: NCI-H460, 48 h, read-out: Activity
UACC-62 = assay: Growth inhibition of human UACC62 cells assessed as cell growth at 1 mM after 48 hrs by SRB assay; settings: UACC-62, 48 h, read-out: Activity
A549 = assay: Growth inhibition of human A549 cells assessed as cell growth at 1 uM after 48 hrs by SRB assay; settings: A549, 48 h, read-out: Activity
SK-MEL-2 = assay: Growth inhibition of human SK-MEL-2 cells assessed as cell growth at 1 uM after 48 hrs by SRB assay; settings: SK-MEL-2, 48 h, read-out: Activity
UACC-257 = assay: Growth inhibition of human UACC257 cells after 48 hrs by […] growth inhibition assay; settings: UACC-257, 48 h
HOP-92 [2] = assay: Growth inhibition of human HOP92 cells assessed as cell growth at 0.1 uM after 48 hrs by SRB assay; settings: HOP-92, 48 h, read-out: Activity
SF-295 = assay: Growth inhibition of human SF295 cells assessed as cell growth at 0.1 uM after 48 hrs by SRB assay; settings: SF-295, 48 h, read-out: Activity
COLO 205 [3] = assay: Growth inhibition of human COLO205 cells after 48 hrs by […] growth inhibition assay; settings: COLO 205, 48 h
DU-145 = assay: Growth inhibition of human DU145 cells assessed as cell growth at 1 uM after 48 hrs by SRB assay; settings: DU-145, 48 h, read-out: Activity
HCT-15 = assay: Growth inhibition of human HCT15 cells assessed as cell growth at 1 mM after 48 hrs by SRB assay; settings: HCT-15, 48 h, read-out: Activity
IGROV-1 [4] = assay: Growth inhibition of human IGROV1 cells assessed as cell growth at 10 uM after 48 hrs by SRB assay; settings: IGROV-1, 48 h, read-out: Activity
NCI/ADR-RES = assay: Growth inhibition of human NCI/ADR-RES cells assessed as cell growth at 10 uM after 48 hrs by SRB assay; settings: read-out: Activity
LOX IMVI [5] = assay: Growth inhibition of human LOXIMVI cells after 48 hrs by […] growth inhibition assay
HCT-116 = assay: Growth inhibition of human HCT116 cells assessed as cell growth at 100 uM after 48 hrs by SRB assay; settings: HCT-116, 48 h, read-out: Activity
NCI-H23 = assay: Growth inhibition of human NCI-H23 cells assessed as cell growth at 1 mM after 48 hrs by SRB assay; settings: NCI-H23, 48 h, read-out: Activity
LOX IMVI [6] = assay: Growth inhibition of human LOXIMVI cells assessed as cell growth at 0.1 uM after 48 hrs by SRB assay; settings: read-out: Activity
786-0 = assay: Growth inhibition of human 786-0 cells assessed as cell growth at 1 uM after 48 hrs by SRB assay; settings: 786-0, 48 h, read-out: Activity
[7] = Growth inhibition of human […] cells assessed as cell growth at 10 uM after 48 hrs by SRB assay; settings: read-out: Activity
PC-3 = assay: Growth inhibition of human PC3 cells after 48 hrs by […] growth inhibition assay; settings: PC-3, 48 h
M14 = assay: Growth inhibition of human M14 cells assessed as cell growth at 100 uM after 48 hrs by SRB assay; settings: M14, 48 h, read-out: Activity
SNB-19 [8] = assay: Growth inhibition of human SNB19 cells after 48 hrs by […] growth inhibition assay; settings: SNB-19, 48 h
T47D = assay: Growth inhibition of human T47D cells assessed as cell growth at 1 uM after 48 hrs by SRB assay; settings: read-out: Activity
OVCAR-5 = assay: Growth inhibition of human OVCAR5 cells assessed as cell growth at 0.1 uM after 48 hrs by SRB assay; settings: OVCAR-5, 48 h, read-out: Activity
CAKI-1 = assay: Growth inhibition of human Caki1 cells assessed as cell growth at 100 uM after 48 hrs by SRB assay; settings: CAKI-1, 48 h, read-out: Activity
SK-MEL-5 = assay: Growth inhibition of human SK-MEL-5 cells assessed as cell growth at 1 uM after 48 hrs by SRB assay; settings: SK-MEL-5, 48 h, read-out: Activity
MDA-MB-231 = assay: Growth inhibition of human MDA-MB-231 cells assessed as cell growth at 100 uM after 48 hrs by SRB assay; settings: MDA-MB-231, 48 h, read-out: Activity
COLO 205 [9] = assay: Growth inhibition of human COLO205 cells assessed as cell growth at 0.1 uM after 48 hrs by SRB assay; settings: COLO 205, 48 h, read-out: Activity
SK-OV-3 = assay: Growth inhibition of human SKOV3 cells assessed as cell growth at 100 uM after 48 hrs by SRB assay; settings: SK-OV-3, 48 h, read-out: Activity
HL-60(TB) = assay: Growth inhibition of human HL-60(TB) cells assessed as cell growth at 10 uM after 48 hrs by SRB assay; settings: HL-60, 48 h, read-out: Activity
SNB-19 [10] = assay: Growth inhibition of human SNB19 cells assessed as cell growth at 1 mM after 48 hrs by SRB assay; settings: SNB-19, 48 h, read-out: Activity
IGROV-1 [11] = assay: Growth inhibition of human IGROV1 cells after 48 hrs by […] growth inhibition assay; settings: IGROV-1, 48 h
[12] = read-out: LC50 (the source's name)
[13] = read-out: pLC50 (the source's name) (converted)

CCOC(=O)C[C@H]1[C@@H](O[Si](C)(C)C(C)(C)C)[C@H](n2cnc3c(NC(=O)Nc4ccccc4)ncnc32)O[C@@H]1CNC(=O)NC
growth at 100 µM (HOP-92 [1]): -32% | growth at 100 µM (NCI-H460): 32% | growth at 1000 µM (UACC-62): 60% | growth at 1 µM (A549): 103% | growth at 1 µM (SK-MEL-2): 94% | GI50 (UACC-257; read-out: GI50): 5.68 µM | CC50 (UACC-257; [12]): > 100 µM | TGI (UACC-257; read-out: TGI): > 100 µM | GI50 (UACC-257; read-out: pGI50 (converted)): 5.62 µM | CC50 (UACC-257; [13]): > 100 µM | TGI (UACC-257; read-out: pTGI (converted)): > 100 µM | growth at 0.1 µM (HOP-92 [2]): 4% | growth at 0.1 µM (SF-295): 91% | GI50 (COLO 205 [3]; read-out: GI50): 3.84 µM | CC50 (COLO 205 [3]; [12]): > 100 µM | TGI (COLO 205 [3]; read-out: TGI): > 100 µM | GI50 (COLO 205 [3]; read-out: pGI50 (converted)): 3.8 µM | CC50 (COLO 205 [3]; [13]): > 100 µM | TGI (COLO 205 [3]; read-out: pTGI (converted)): > 100 µM | growth at 1 µM (DU-145): 123% | growth at 1000 µM (HCT-15): 43% | growth at 10 µM (IGROV-1 [4]): 93% | growth at 10 µM (NCI/ADR-RES): 104% | GI50 (LOX IMVI [5]; read-out: GI50): 5.46 µM | CC50 (LOX IMVI [5]; [12]): > 100 µM | TGI (LOX IMVI [5]; read-out: TGI): > 100 µM | GI50 (LOX IMVI [5]; read-out: pGI50 (converted)): 5.5 µM | CC50 (LOX IMVI [5]; [13]): > 100 µM | TGI (LOX IMVI [5]; read-out: pTGI (converted)): > 100 µM | growth at 100 µM (HCT-116): 23% | growth at 1000 µM (NCI-H23): 36% | growth at 0.1 µM (LOX IMVI [6]): 97% | growth at 1 µM (786-0): 83% | growth at 10 µM [7]: 53% | GI50 (PC-3; read-out: GI50): 2.25 µM | CC50 (PC-3; [12]): 78.4 µM | TGI (PC-3; read-out: TGI): 48.5 µM | GI50 (PC-3; read-out: pGI50 (converted)): 2.24 µM | CC50 (PC-3; [13]): 12.6 µM | TGI (PC-3; read-out: pTGI (converted)): 4.9 µM | growth at 100 µM (M14): 4% | GI50 (SNB-19 [8]; read-out: GI50): 29 µM | CC50 (SNB-19 [8]; [12]): > 100 µM | TGI (SNB-19 [8]; read-out: TGI): > 100 µM | GI50 (SNB-19 [8]; read-out: pGI50 (converted)): 28.8 µM | CC50 (SNB-19 [8]; [13]): > 100 µM | TGI (SNB-19 [8]; read-out: pTGI): > 100 µM | growth at 1 µM (T47D): 89% | growth at 0.1 µM (OVCAR-5): 104% | growth at 100 µM (CAKI-1): 88% | growth at 1 µM (SK-MEL-5): 100% | growth at 100 µM (MDA-MB-231): 20% | growth at 0.1 µM (COLO 205 [9]): 102% | growth at 100 µM (SK-OV-3): 66% | growth at 10 µM (HL-60(TB)): 101% | growth at 1000 µM (SNB-19 [10]): 12% | GI50 (IGROV-1 [11]; read-out: GI50): 3.85 µM | CC50 (IGROV-1 [11]; [12]): 79.2 µM | TGI (IGROV-1 [11]; read-out: TGI): 18 µM | GI50 (IGROV-1 [11]; read-out: pGI50 (converted)): 3.89 µM | CC50 (IGROV-1 [11]; [13]): 79.4 µM | TGI (IGROV-1 [11]; read-out: pTGI (converted)): 18.2 µM
